Measured values from patent publication US12582677B2, “Methods for producing retinal tissue and retina-related cell” (SUMITOMO CHEMICAL COMPANY, LIMITED, priority 2011, dated 2026).

Tests used:
[1] = tested on: RAX::GFP knock-in human ES cells; assay: Production of optic-cup-like structure from human ES cell aggregates; type: cell-based; conditions: 3 μM CHIR99021 and 100 nM SAG together in serum-containing medium from day 15
Method: RAX::GFP knock-in human ES cells (derived from KhES-1) were cultured according to the methods described in “Ueno, M. et al. PNAS 2006”, “Watanabe, K. et al. Nat Biotech 2007” and used for the experiment. As the medium, DMEM/F12 medium (Invitrogen) added with 20% KSR (Knockout Serum Replacement; Invitrogen), 0.1 mM 2-mercaptoethanol, 1 mM pyruvic acid, and 5 to 10 ng/ml bFGF was used. For the formation of aggregate by floating culture, the ES cells were dispersed into single cells by using 0.25% trypsin-EDTA (Invitrogen), suspended in a serum-free medium (100 μl) to 9×10^3 cells per well of a non-cell adhesive 96-well culture plate (SUMILON spheroid plate, SUMITOMO BAKELITE CO., LTD.) to allow for rapid formation of aggregates, and floating cultured at 37° C., 5% CO2. As the serum-free medium in this case, a serum-free medium obtained by adding 20% KSR, 0.1 mM 2-mercaptoethanol, 1 mM pyruvic acid, 20 μM Y27632 and a substance inhibiting the Wnt signal pathway (3 μM IWR1e) to G-MEM medium was used. During the floating culture, Matrigel in an amount of 1/100 per volume was added from day 2 from the start of the floating culture. The floating aggregate was transferred to a serum-free medium without a substance inhibiting the Wnt signal pathway on day 12 from the start of the floating culture, fetal calf serum in an amount of 1/10 per volume was added and the aggregate was cultured. […]

[2] = tested on: Human ES cells (KhES-1); assay: Production of retinal pigment epithelium from human ES cell aggregates; type: cell-based; conditions: Matrigel and serum steps
Method: Human ES cells (KhES-1) were cultured according to the methods described in “Ueno, M. et al. PNAS 2006”, “Watanabe, K. et al. Nat Biotech 2007” and used for the experiment. As the medium, DMEM/F12 medium (Invitrogen) added with 20% KSR (Knockout Serum Replacement; Invitrogen), 0.1 mM 2-mercaptoethanol, 1 mM pyruvic acid, and 5 to 10 ng/ml bFGF was used. For the formation of retinal tissue by floating culture, the ES cells were dispersed into single cells by using 0.25% trypsin-EDTA (Invitrogen), suspended in a serum-free medium (100 μl) to 9×10^3 cells per well of a non-cell adhesive 96-well culture plate (SUMILON spheroid plate, SUMITOMO BAKELITE CO., LTD.) to allow for rapid formation of aggregates, and floating cultured at 37° C., 5% CO2. As the serum-free medium in this case, a serum-free medium obtained by adding 20% KSR, 0.1 mM 2-mercaptoethanol, 1 mM pyruvic acid, 20 μM Y27632 and a substance inhibiting the Wnt signal pathway (3 μM IWR1e) to G-MEM medium was used. Matrigel was added in an amount of 1/100 per volume from day 2 of the floating culture and floating culture was performed. The aggregate was transferred to a serum-free medium without containing a substance inhibiting the Wnt signal pathway on day 12 from the start of the floating culture, fetal calf serum in an amount of 1/10 per volume was added and cultured. […]

Row | Compound | optic-cup-like structure formation on aggregate [1] | retinal pigment epithelium on aggregates (bright-field) ([2]; 3 μM CHIR99021 from day 15, after IWR1e) | retinal pigment epithelia on aggregates (bright-field) ([2]; Activin A 100 ng/ml with 3 μM CHIR99021 from day 15, after IWR1e)
1 | Cc1c[nH]c(-c2cnc(NCCNc3ccc(C#N)cn3)nc2-c2ccc(Cl)cc2Cl)n1 [CHIR99021] | a clear optic-cup-like structure was formed | emerged on almost all surfaces of the aggregates | –
2 | Activin A: substance acting on the Activin signal pathway; Recombinant Human/Mouse/Rat Activin A (R&D systems #338-AC) | – | – | almost all the surfaces of the aggregates were covered with retinal pigment epithelia
